Experimental data from US20030215516A1, “Process for production of crystals of a medicinally effective ingredient, crystals obtained thereby and pharmaceutical preparations containing them” (priority 2002, published 2003).
Where two headings read alike, the source gives them in different places.

Columns and labels:
[1] = Active ingredient release from 1 mg capsule / 1 mg tablet; type: physicochemical; details: micronized J956, 0.3% SDS in water
Experimental: The release values were compared in a test medium, which comprises 0.3% SDS in water, with paddle stirring, 100 rpm.
Active Ingredient Release:
Active ingredient release measured in 1000 mL water with 0.3% sodium dodecyl sulfate, 100 rpm
Content Determination by HPLC with external calibration
(§1) Column: LiChrosphere 5μ RP-18 encapped, 150×3 mm
(§2) Eluent: acetonitrile/water=45/55

[2] = micronized J956
From the text: Content Determination according to USP/Ph. Eur. for individual capsules after elution through HPLC with external calibration
as §1, §2

[3] = Particle size distribution (Sympatec HELOS, dry dispersion); type: physicochemical
From the text: Particle Size Distribution:
Sympatec HELOS (H0445), dry dispersion system (RODOS), pressure 2 bar

[4] = Example 7, primary particle size
[5] = Example 6, primary particle size
[6] = Example 4, primary particle size

**Q.** Which results are given for CCNC(=O)ON=Cc1ccc(C2CC3(C)C(CCC3(COC)OC)C3CCC4=CC(=O)CCC4=C23)cc1 (stereo not drawn) [Micronizate, 11β-{4-[(ethylaminocarbonyl)oximinomethyl]phenyl}-17β-methoxy-17α-methoxymethyl-estra-4,9-dien-3-one, reference compound]?
**A.** RELEASE in % ([1]; 1 mg capsule, 0 min, paddle 100 rpm): 0%; RELEASE in % ([1]; 1 mg capsule, 10 min, paddle 100 rpm): 92.1%; RELEASE in % ([1]; 1 mg capsule, 20 min, paddle 100 rpm): 94.3%; RELEASE in % ([1]; 1 mg capsule, 30 min, paddle 100 rpm): 94.6%; RELEASE in % ([1]; 1 mg capsule, 45 min, paddle 100 rpm): 94.9%; RELEASE in % ([1]; 1 mg tablet, 0 min, paddle, 100 rpm): 0%; RELEASE in % ([1]; 1 mg tablet, 10 min, paddle, 100 rpm): 92.1%; RELEASE in % ([1]; 1 mg tablet, 20 min, paddle, 100 rpm): 94.3%; RELEASE in % ([1]; 1 mg tablet, 30 min, paddle, 100 rpm): 94.6%; RELEASE in % ([1]; 1 mg tablet, 45 min, paddle, 100 rpm): 94.9%; CUT value spread: Confidence Interval % ([2]; 1 mg capsule): 1.72%; CUT value spread: RSD, % ([2]; 1 mg capsule): 2.56%; CUT value spread: Confidence Interval % ([2]; 1 mg tablet): 1.72%; CUT value spread: RSD, % ([2]; 1 mg tablet): 2.56%

**Q.** Which results are given for C[C@]1(O)CC[C@H]2[C@@H]3CCC4=CC(=O)CC[C@@H]4[C@H]3CC[C@@]21C [methylnortestosterone, reference compound]?
**A.** Particle size X10 [3, 4]: 1.32 μm; Particle size X50 [3, 4]: 3.96 μm; Particle size X99 [3, 4]: 14 μm; Particle size X100 [3, 4]: 18 μm; Particle size X10 ([3]; Example 7, spray-dried): 1.36 μm; Particle size X50 ([3]; Example 7, spray-dried): 3.94 μm; Particle size X99 ([3]; Example 7, spray-dried): 14 μm; Particle size X100 ([3]; Example 7, spray-dried): 18 μm

**Q.** With C#C[C@]1(OC(C)=O)CC[C@H]2[C@@H]3CCC4=CC(=O)CC[C@@H]4[C@H]3CC[C@@]21C [norethisterone acetate, reference compound] as the compound, how does the “Particle size X10” value ([3]; Example 6, end) read?
**A.** 8.5 μm

**Q.** And the “Particle size X50” value ([3]; Example 6, end)?
**A.** 30.4 μm

**Q.** What about the “Particle size X99” value ([3]; Example 6, end) of the same compound?
**A.** 87 μm

**Q.** What about the “Particle size X100” value ([3]; Example 6, end) of the same compound?
**A.** 100 μm

**Q.** What about the “Particle size X10” value [3, 5] of the same compound?
**A.** 4 μm

**Q.** What about the “Particle size X50” value [3, 5] of the same compound?
**A.** 14 μm

**Q.** And the “Particle size X99” value [3, 5]?
**A.** 55 μm

**Q.** What about the “Particle size X100” value [3, 5] of the same compound?
**A.** 87 μm

**Q.** Which “Particle size X10” value ([3]; Example 4, 1st cycle) does the source give for CCCCCCCCCCC(=O)O[C@H]1CC[C@H]2[C@@H]3CCC4=CC(=O)CC[C@]4(C)[C@H]3CC[C@]12C [testosterone undecanoate, reference compound] here?
**A.** 17 μm

**Q.** What about the “Particle size X50” value ([3]; Example 4, 1st cycle) of the same compound?
**A.** 41 μm

**Q.** And the “Particle size X99” value ([3]; Example 4, 1st cycle)?
**A.** 100 μm

**Q.** What about the “Particle size X100” value ([3]; Example 4, 1st cycle) of the same compound?
**A.** 120 μm

**Q.** And the “Particle size X10” value [3, 6]?
**A.** 6 μm

**Q.** And the “Particle size X50” value [3, 6]?
**A.** 21 μm

**Q.** What about the “Particle size X99” value [3, 6] of the same compound?
**A.** 100 μm

**Q.** What about the “Particle size X100” value [3, 6] of the same compound?
**A.** 120 μm
